# Results reported in PMC9403976, “Elucidating the path to Plasmodium prolyl-tRNA synthetase inhibitors that overcome halofuginone resistance” (Nature Communications, 2022).
# Several values for one entry are separate records, joined by “and”; a condition that tells them apart may be missing. Equal entries are not always repeated. Where two headings read alike, the source gives them in different places.
# Tests used:
# P. falciparum Dd2-2D4 = experiment: P. falciparum asexual blood stage (ABS) growth assay, SYBR Green, 72 h, wild-type parasites; assay type: cell-based, Plasmodium falciparum; conditions: Plasmodium falciparum, DD2; SI Fig 16b; values on -log scale; read-out: ABS - Dd2-2D4 (converted)
# PfcProRS = biological target: T1, PfcProRS (Plasmodium falciparum, UniProt Q8I5R7); assay type: binding; conditions: replicates 1-3
# T1 construct: made in house; host or cells: E. coli SoluBL-21
# T1 sequence (Q8I5R7 249-746): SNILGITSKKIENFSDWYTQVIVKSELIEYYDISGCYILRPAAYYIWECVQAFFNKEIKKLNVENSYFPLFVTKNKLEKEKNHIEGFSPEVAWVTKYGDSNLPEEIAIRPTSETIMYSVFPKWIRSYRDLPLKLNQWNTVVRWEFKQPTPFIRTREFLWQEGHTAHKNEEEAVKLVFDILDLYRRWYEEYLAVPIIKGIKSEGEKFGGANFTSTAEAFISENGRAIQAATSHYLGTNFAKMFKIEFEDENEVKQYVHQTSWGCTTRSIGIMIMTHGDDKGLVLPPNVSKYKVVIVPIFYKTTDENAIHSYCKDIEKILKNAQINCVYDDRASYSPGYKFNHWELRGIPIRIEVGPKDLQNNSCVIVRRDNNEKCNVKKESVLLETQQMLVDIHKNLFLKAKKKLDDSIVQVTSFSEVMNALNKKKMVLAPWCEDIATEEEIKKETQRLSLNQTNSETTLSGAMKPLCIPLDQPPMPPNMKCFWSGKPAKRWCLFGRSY
# HsProRS = HsProRS (Homo sapiens, UniProt P07814); experiment: TR-FRET ligand displacement assay with tracer MAT379 (CoraFluor-1-Halo and anti-His6 antibody formats); assay type: binding; parameters: made in house; host or cells: E. coli SoluBL-21; conditions: for HsProRS % signal at 10 μM: no added proline/ATP (-)
# HsProRS, sequence (P07814 996-1512): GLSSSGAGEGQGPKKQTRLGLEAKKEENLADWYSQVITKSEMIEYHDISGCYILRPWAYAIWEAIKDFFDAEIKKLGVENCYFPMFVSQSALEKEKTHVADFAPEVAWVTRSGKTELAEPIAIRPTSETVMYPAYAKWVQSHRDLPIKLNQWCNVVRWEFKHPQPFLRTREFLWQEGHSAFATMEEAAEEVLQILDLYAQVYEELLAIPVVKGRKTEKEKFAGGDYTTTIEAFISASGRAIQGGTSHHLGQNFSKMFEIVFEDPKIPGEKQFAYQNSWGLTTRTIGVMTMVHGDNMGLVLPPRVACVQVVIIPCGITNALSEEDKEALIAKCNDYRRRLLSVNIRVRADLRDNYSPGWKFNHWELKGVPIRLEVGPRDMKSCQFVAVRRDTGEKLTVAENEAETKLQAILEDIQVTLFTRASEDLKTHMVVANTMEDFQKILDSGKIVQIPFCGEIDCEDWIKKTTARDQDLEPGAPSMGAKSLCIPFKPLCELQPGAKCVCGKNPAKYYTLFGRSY
# [1] = read-out: HsProRS IC50 + 100 μM proline, + 100 μM proline
structure (smiles),measurement,setting,value
O=C(NC1CCCCC1)c1nccnc1NC(=O)C1Cc2ccccc2C1 [compound 49],EC50,P. falciparum Dd2-2D4,6.81 µM
same,"Normalized response, dose-response replicates (SI Fig 14)",PfcProRS; Log[inhibitor] (M) -5.000,8.45E-01 and 8.81E-01 and 7.61E-01
same,"Normalized response, dose-response replicates (SI Fig 14)",PfcProRS; Log[inhibitor] (M) -5.301,9.54E-01 and 9.61E-01 and 9.77E-01
same,"Normalized response, dose-response replicates (SI Fig 14)",PfcProRS; Log[inhibitor] (M) -5.601,1.16E+00 and 9.36E-01 and 1.07E+00
same,"Normalized response, dose-response replicates (SI Fig 14)",PfcProRS; Log[inhibitor] (M) -5.904,8.95E-01 and 1.06E+00 and 1.02E+00
same,"Normalized response, dose-response replicates (SI Fig 14)",PfcProRS; Log[inhibitor] (M) -6.208,1.16E+00 and 9.70E-01 and 1.06E+00
same,"Normalized response, dose-response replicates (SI Fig 14)",PfcProRS; Log[inhibitor] (M) -6.509,1.04E+00 and 1.06E+00 and 1.11E+00
same,"Normalized response, dose-response replicates (SI Fig 14)",PfcProRS; Log[inhibitor] (M) -6.796,1.05E+00 and 9.78E-01 and 1.11E+00
same,"Normalized response, dose-response replicates (SI Fig 14)",PfcProRS; Log[inhibitor] (M) -7.108,1.04E+00 and 1.10E+00 and 1.05E+00
same,"Normalized response, dose-response replicates (SI Fig 14)",PfcProRS; Log[inhibitor] (M) -7.409,1.08E+00 and 9.76E-01 and 1.10E+00
same,"Normalized response, dose-response replicates (SI Fig 14)",PfcProRS; Log[inhibitor] (M) -7.710,9.25E-01 and 1.04E+00 and 1.10E+00
same,"Normalized response, dose-response replicates (SI Fig 14)",PfcProRS; Log[inhibitor] (M) -8.000,1.07E+00 and 1.04E+00 and 1.10E+00
same,"Normalized response, dose-response replicates (SI Fig 14)",PfcProRS; Log[inhibitor] (M) -8.301,9.50E-01 and 1.14E+00 and 9.21E-01
same,"Normalized response, dose-response replicates (SI Fig 14)",PfcProRS; Log[inhibitor] (M) -8.602,9.83E-01 and 1.05E+00 and 9.81E-01
same,"Normalized response, dose-response replicates (SI Fig 14)",PfcProRS; Log[inhibitor] (M) -9.000,1.05E+00 and 1.09E+00 and 1.08E+00
same,"Normalized response, dose-response replicates (SI Fig 14)",PfcProRS; Log[inhibitor] (M) -9.301,1.08E+00 and 1.02E+00 and 9.82E-01
same,IC50,HsProRS,> 10 µM
same,"HsProRS % signal at 10 μM, + 100 μM proline",HsProRS; + 100 μM proline,103%
same,HsProRS % signal at 10 μM,HsProRS,90.3%
same,IC50,HsProRS; [1],> 10 µM
O=C(NC1Cc2ccccc2C1)c1nccnc1NS(=O)(=O)C1CCCCC1 [compound 50],EC50,P. falciparum Dd2-2D4,13 µM
same,"Normalized response, dose-response replicates (SI Fig 14)",PfcProRS; Log[inhibitor] (M) -5.000,8.68E-01 and 9.74E-01 and 9.94E-01
same,"Normalized response, dose-response replicates (SI Fig 14)",PfcProRS; Log[inhibitor] (M) -5.301,9.83E-01 and 9.53E-01 and 9.64E-01
same,"Normalized response, dose-response replicates (SI Fig 14)",PfcProRS; Log[inhibitor] (M) -5.601,9.71E-01 and 9.90E-01 and 1.02E+00
same,"Normalized response, dose-response replicates (SI Fig 14)",PfcProRS; Log[inhibitor] (M) -5.904,1.05E+00 and 1.15E+00 and 1.14E+00
same,"Normalized response, dose-response replicates (SI Fig 14)",PfcProRS; Log[inhibitor] (M) -6.208,1.03E+00 and 9.74E-01 and 1.18E+00
same,"Normalized response, dose-response replicates (SI Fig 14)",PfcProRS; Log[inhibitor] (M) -6.509,1.04E+00 and 9.48E-01 and 1.06E+00
same,"Normalized response, dose-response replicates (SI Fig 14)",PfcProRS; Log[inhibitor] (M) -6.796,9.91E-01 and 1.03E+00 and 9.32E-01
same,"Normalized response, dose-response replicates (SI Fig 14)",PfcProRS; Log[inhibitor] (M) -7.108,9.63E-01 and 9.98E-01 and 1.15E+00
same,"Normalized response, dose-response replicates (SI Fig 14)",PfcProRS; Log[inhibitor] (M) -7.409,9.71E-01 and 8.81E-01 and 1.12E+00
same,"Normalized response, dose-response replicates (SI Fig 14)",PfcProRS; Log[inhibitor] (M) -7.710,9.98E-01 and 1.04E+00 and 1.13E+00
same,"Normalized response, dose-response replicates (SI Fig 14)",PfcProRS; Log[inhibitor] (M) -8.000,1.13E+00 and 9.44E-01 and 9.76E-01
same,"Normalized response, dose-response replicates (SI Fig 14)",PfcProRS; Log[inhibitor] (M) -8.301,8.99E-01 and 9.55E-01 and 8.96E-01
same,"Normalized response, dose-response replicates (SI Fig 14)",PfcProRS; Log[inhibitor] (M) -8.602,9.78E-01 and 9.85E-01 and 1.02E+00
same,"Normalized response, dose-response replicates (SI Fig 14)",PfcProRS; Log[inhibitor] (M) -9.000,9.55E-01 (2×) and 1.01E+00
same,"Normalized response, dose-response replicates (SI Fig 14)",PfcProRS; Log[inhibitor] (M) -9.301,9.48E-01 and 9.83E-01 and 9.54E-01
same,IC50,HsProRS,> 10 µM
same,"HsProRS % signal at 10 μM, + 100 μM proline",HsProRS; + 100 μM proline,84.5%
same,HsProRS % signal at 10 μM,HsProRS,87.7%
same,IC50,HsProRS; [1],> 10 µM
